Read-outs that look alike come from different tables or passages of the source.
Experiments:
[1] = target: Human μ-opioid receptor (Homo sapiens, UniProt P35372); experiment: biochemical; assay type: binding
[2] = target: Human α2δ-1 subunit of Cav2.2 calcium channel (Homo sapiens, UniProt P54289); experiment: biochemical; assay type: binding
Chain of Human α2δ-1 subunit of Cav2.2 calcium channel (P54289 25-1103): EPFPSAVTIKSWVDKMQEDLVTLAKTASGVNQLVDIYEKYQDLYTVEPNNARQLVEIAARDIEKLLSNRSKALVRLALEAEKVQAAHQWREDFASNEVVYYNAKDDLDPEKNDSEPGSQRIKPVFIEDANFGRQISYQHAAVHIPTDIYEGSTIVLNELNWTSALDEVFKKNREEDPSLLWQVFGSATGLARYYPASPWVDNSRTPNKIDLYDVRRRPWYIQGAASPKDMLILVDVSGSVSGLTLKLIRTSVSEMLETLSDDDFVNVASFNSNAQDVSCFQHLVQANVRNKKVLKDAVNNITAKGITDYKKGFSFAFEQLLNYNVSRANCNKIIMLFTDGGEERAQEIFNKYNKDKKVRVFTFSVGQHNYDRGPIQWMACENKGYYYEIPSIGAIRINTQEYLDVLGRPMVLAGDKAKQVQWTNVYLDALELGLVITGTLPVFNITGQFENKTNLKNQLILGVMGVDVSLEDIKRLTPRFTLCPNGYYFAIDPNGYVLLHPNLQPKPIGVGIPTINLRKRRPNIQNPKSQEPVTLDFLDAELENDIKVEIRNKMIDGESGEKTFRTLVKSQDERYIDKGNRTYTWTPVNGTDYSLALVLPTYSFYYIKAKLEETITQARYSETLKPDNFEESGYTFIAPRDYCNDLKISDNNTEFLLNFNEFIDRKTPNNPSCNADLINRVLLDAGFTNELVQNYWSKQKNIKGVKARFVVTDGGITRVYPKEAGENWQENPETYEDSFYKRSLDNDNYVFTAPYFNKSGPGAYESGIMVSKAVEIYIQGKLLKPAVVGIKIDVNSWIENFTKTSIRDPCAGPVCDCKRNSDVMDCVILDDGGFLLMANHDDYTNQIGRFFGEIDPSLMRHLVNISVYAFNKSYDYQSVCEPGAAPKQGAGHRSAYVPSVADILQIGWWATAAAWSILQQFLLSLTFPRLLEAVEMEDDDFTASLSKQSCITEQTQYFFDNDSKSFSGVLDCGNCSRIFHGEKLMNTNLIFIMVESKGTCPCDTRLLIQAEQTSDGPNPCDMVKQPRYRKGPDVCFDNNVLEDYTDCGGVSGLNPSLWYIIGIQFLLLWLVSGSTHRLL

Chain of Human μ-opioid receptor (P35372 whole entry): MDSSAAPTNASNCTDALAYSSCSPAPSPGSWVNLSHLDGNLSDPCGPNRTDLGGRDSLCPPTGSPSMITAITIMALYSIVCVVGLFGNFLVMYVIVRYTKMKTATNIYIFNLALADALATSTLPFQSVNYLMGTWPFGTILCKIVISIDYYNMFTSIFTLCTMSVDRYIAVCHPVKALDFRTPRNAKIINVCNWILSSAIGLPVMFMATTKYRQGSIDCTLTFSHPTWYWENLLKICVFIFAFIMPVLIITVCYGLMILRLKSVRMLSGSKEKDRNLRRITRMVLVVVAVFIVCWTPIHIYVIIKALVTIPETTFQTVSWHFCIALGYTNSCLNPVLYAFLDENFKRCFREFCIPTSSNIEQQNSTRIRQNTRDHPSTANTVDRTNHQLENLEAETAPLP

Ki ([1]; read-out: μ-binding) [nM] | Ki ([2]; read-out: α2δ-1 binding) [nM] | Compound | Ki [1] [nM] | Ki [2] [nM]
 |  | CCC[C@@H](c1nc2ccc(NCC[C@@]3(c4ccccn4)CCOC4(CCCC4)C3)cc2c(=O)n1CC)N1C[C@@H](C)N[C@@H](C)C1 [Example 158, 2-((S)-1-((3S,5R)-3,5-Dimethylpiperazin-1-yl)butyl)-3-ethyl-6-((2-((R)-9-(pyridin-2-yl)-6-oxaspiro[4.5]decan-9-yl)ethyl)amino)quinazolin-4(3H)-one] | > 500 | < 500
 |  | CCC[C@H](c1nc2ccc(NCC[C@]3(c4ccccn4)CCOC4(CCCC4)C3)cc2c(=O)n1CC)N1C[C@@H](C)N[C@@H](C)C1 [Example 159, 2-((R)-1-((3S,5R)-3,5-dimethylpiperazin-1-yl)butyl)-3-ethyl-6-((2-((S)-9-(pyridin-2-yl)-6-oxaspiro[4.5]decan-9-yl)ethyl)amino)quinazolin-4(3H)-one] | > 500 | 500 to 5000
 |  | CCC[C@H](c1nc2ccc(NCC[C@@]3(c4ccccn4)CCOC4(CCCC4)C3)cc2c(=O)n1CC)N1C[C@@H](C)N[C@@H](C)C1 [Example 160, 2-((R)-1-((3S,5R)-3,5-dimethylpiperazin-1-yl)butyl)-3-ethyl-6-((2-((R)-9-(pyridin-2-yl)-6-oxaspiro[4.5]decan-9-yl)ethyl)amino)quinazolin-4(3H)-one] | > 500 | < 500
 |  | CCC[C@@H](c1nc2ccc(NCC[C@]3(c4ccccn4)CCOC4(CCCC4)C3)cc2c(=O)n1CC)N1C[C@@H](C)N[C@@H](C)C1 [Example 161, 2-((S)-1-((3S,5R)-3,5-dimethylpiperazin-1-yl)butyl)-3-ethyl-6-((2-((S)-9-(pyridin-2-yl)-6-oxaspiro[4.5]decan-9-yl)ethyl)amino)quinazolin-4(3H)-one] | > 500 | > 5000
> 500 | 500 to 5000 | CCCC(c1nc2c(Br)c(N(Cc3cccc(OC)c3)C(=O)OC(C)(C)C)ccc2c(=O)n1CC)N1C[C@@H](C)N[C@@H](C)C1 (stereo partly drawn) [Example 162, tert-Butyl (8-bromo-2-(1-((3S,5R)-3,5-dimethylpiperazin-1-yl)butyl)-3-ethyl-4-oxo-3,4-dihydroquinazolin-7-yl)(3-methoxybenzyl)carbamate] |  | 
 |  | CCC[C@@H](c1nc2cc(O[C@H](CCNC)c3ccccc3)ccc2c(=O)n1C)N1C[C@@H](C)N[C@@H](C)C1 [Example 164, 2-((S)-1-((3S,5R)-3,5-Dimethylpiperazin-1-yl)butyl)-3-methyl-7-((R)-3-(methylamino)-1-phenylpropoxy)quinazolin-4(3H)-one] | > 500 | 500 to 5000
 |  | CCC[C@H](c1nc2cc(O[C@H](CCNC)c3ccccc3)ccc2c(=O)n1C)N1C[C@@H](C)N[C@@H](C)C1 [Example 165, 2-((R)-1-((3S,5R)-3,5-dimethylpiperazin-1-yl)butyl)-3-methyl-7-((R)-3-(methylamino)-1-phenylpropoxy)quinazolin-4(3H)-one] | > 500 | 500 to 5000
 |  | CCC[C@@H](c1nc2cc(O[C@@H](CCNC)c3ccccc3)ccc2c(=O)n1C)N1C[C@@H](C)N[C@@H](C)C1 [Example 166, 2-((S)-1-((3S,5R)-3,5-dimethylpiperazin-1-yl)butyl)-3-methyl-7-((S)-3-(methylamino)-1-phenylpropoxy)quinazolin-4(3H)-one] | > 500 | < 500
 |  | CCC[C@H](c1nc2cc(O[C@@H](CCNC)c3ccccc3)ccc2c(=O)n1C)N1C[C@@H](C)N[C@@H](C)C1 [Example 167, 2-((R)-1-((3S,5R)-3,5-dimethylpiperazin-1-yl)butyl)-3-methyl-7-((S)-3-(methylamino)-1-phenylpropoxy)quinazolin-4(3H)-one] | > 500 | < 500
 |  | CCC[C@@H](c1nc2cc(O[C@H](CNC)c3ccccc3)ccc2c(=O)n1C)N1C[C@@H](C)N[C@@H](C)C1 [Example 168, 2-((S)-1-((3S,5R)-3,5-dimethylpiperazin-1-yl)butyl)-3-methyl-7-((S)-2-(methylamino)-1-phenylethoxy)quinazolin-4(3H)-one] | > 500 | 500 to 5000
 |  | CCC[C@H](c1nc2cc(O[C@@H](CNC)c3ccccc3)ccc2c(=O)n1C)N1C[C@@H](C)N[C@@H](C)C1 [Example 169, 2-((R)-1-((3S,5R)-3,5-dimethylpiperazin-1-yl)butyl)-3-methyl-7-((R)-2-(methylamino)-1-phenylethoxy)quinazolin-4(3H)-one] | > 500 | 500 to 5000
 |  | CCC[C@H](c1nc2cc(O[C@H](CNC)c3ccccc3)ccc2c(=O)n1C)N1C[C@@H](C)N[C@@H](C)C1 [Example 170, 2-((R)-1-((3S,5R)-3,5-dimethylpiperazin-1-yl)butyl)-3-methyl-7-((S)-2-(methylamino)-1-phenylethoxy)quinazolin-4(3H)-one] | > 500 | < 500
 |  | CCC[C@@H](c1nc2cc(O[C@@H](CNC)c3ccccc3)ccc2c(=O)n1C)N1C[C@@H](C)N[C@@H](C)C1 [Example 171, 2-((S)-1-((3S,5R)-3,5-dimethylpiperazin-1-yl)butyl)-3-methyl-7-((R)-2-(methylamino)-1-phenylethoxy)quinazolin-4(3H)-one] | > 500 | 500 to 5000
 |  | CCCC(c1nc2cc(CO)ccc2c(=O)n1C)N1C[C@@H](C)N[C@@H](C)C1 (stereo partly drawn) [Example 172, 2-(1-((3S,5R)-3,5-Dimethylpiperazin-1-yl)butyl)-7-(hydroxymethyl)-3-methylquinazolin-4(3H)-one] | > 500 | < 500
 |  | CCCC(c1nc2ccc(CCO)cc2c(=O)n1CC)N1C[C@@H](C)N[C@@H](C)C1 (stereo partly drawn) [Example 173, 2-(1-((3S,5R)-3,5-Dimethylpiperazin-1-yl)butyl)-3-ethyl-6-(2-hydroxyethyl)quinazolin-4(3H)-one] | > 500 | < 500
 |  | CCCC(c1nc2ccc(CCN(C)Cc3ccccc3)cc2c(=O)n1CC)N1C[C@@H](C)N[C@@H](C)C1 (stereo partly drawn) [Example 174, 6-(2-(Benzyl(methyl)amino)ethyl)-2-(1-((3S,5R)-3,5-dimethylpiperazin-1-yl)butyl)-3-ethylquinazolin-4(3H)-one] | > 500 | < 500
 |  | CCCC(c1nc2ccc(CCN(C)CCC(C)C)cc2c(=O)n1CC)N1C[C@@H](C)N[C@@H](C)C1 (stereo partly drawn) [Example 175, 2-(1-((3S,5R)-3,5-dimethylpiperazin-1-yl)butyl)-3-ethyl-6-(2-(isopentyl(methyl)amino)ethyl)quinazolin-4(3H)-one] | > 500 | < 500
 |  | CCCC(c1nc2cc(C#N)ccc2c(=O)n1C)N1C[C@@H](C)N[C@@H](C)C1 (stereo partly drawn) [Example 176, 2-(1-((3S,5R)-3,5-Dimethylpiperazin-1-yl)butyl)-3-methyl-4-oxo-3,4-dihydroquinazoline-7-carbonitrile] | > 500 | < 500
 |  | CCCC(c1nc2ccc(C#N)cc2c(=O)n1CC)N1C[C@@H](C)N[C@@H](C)C1 (stereo partly drawn) [Example 177, 2-(1-((3S,5R)-3,5-dimethylpiperazin-1-yl)butyl)-3-ethyl-4-oxo-3,4-dihydroquinazoline-6-carbonitrile] | > 500 | < 500
> 500 | 500 to 5000 | CCCC(c1nc2cc(C(=O)O)ccc2c(=O)n1C)N1C[C@@H](C)N[C@@H](C)C1 (stereo partly drawn) [Example 178, 2-(1-((3S,5R)-3,5-Dimethylpiperazin-1-yl)butyl)-3-methyl-4-oxo-3,4-dihydroquinazoline-7-carboxylic acid] |  | 
> 500 | 500 to 5000 | CCCC(c1nc2cc(C(=O)O)ccc2c(=O)n1CC)N1C[C@@H](C)N[C@@H](C)C1 (stereo partly drawn) [Example 179, 2-(1-((3S,5R)-3,5-dimethylpiperazin-1-yl)butyl)-3-ethyl-4-oxo-3,4-dihydroquinazoline-7-carboxylic acid] |  | 
 |  | CCCC(c1nc2cc(C(=O)NCc3ccccc3)ccc2c(=O)n1CC)N1C[C@@H](C)N[C@@H](C)C1 (stereo partly drawn) [Example 180, N-Benzyl-2-(1-((3S,5R)-3,5-dimethylpiperazin-1-yl)butyl)-3-ethyl-4-oxo-3,4-dihydroquinazoline-7-carboxamide] | > 500 | < 500
 |  | CCCC(c1nc2ccc(CN(C)Cc3ccccc3)cc2c(=O)n1CC)N1C[C@@H](C)N[C@@H](C)C1 (stereo partly drawn) [Example 183, 6-((benzyl(methyl)amino)methyl)-2-(1-((3S,5R)-3,5-dimethylpiperazin-1-yl)butyl)-3-ethylquinazolin-4(3H)-one] | > 500 | < 500
 |  | CCCC(c1nc2ccc(CN(C)CC(C)C)cc2c(=O)n1CC)N1C[C@@H](C)N[C@@H](C)C1 (stereo partly drawn) [Example 184, 2-(1-((3S,5R)-3,5-dimethylpiperazin-1-yl)butyl)-3-ethyl-6-((isobutyl(methyl)amino)methyl)quinazolin-4(3H)-one] | > 500 | < 500
 |  | CCCC(c1nc2ccc(CN(C)CCC(C)C)cc2c(=O)n1CC)N1C[C@@H](C)N[C@@H](C)C1 (stereo partly drawn) [Example 185, 2-(1-((3S,5R)-3,5-dimethylpiperazin-1-yl)butyl)-3-ethyl-6-((isopentyl(methyl)amino)methyl)quinazolin-4(3H)-one] | > 500 | < 500
 |  | CCCC(c1nc2cc(CN3CCN(C)CC3)ccc2c(=O)n1C)N1C[C@@H](C)N[C@@H](C)C1 (stereo partly drawn) [Example 186, 2-(1-((3S,5R)-3,5-dimethylpiperazin-1-yl)butyl)-3-methyl-7-((4-methylpiperazin-1-yl)methyl)quinazolin-4(3H)-one] | > 500 | < 500
> 500 | 500 to 5000 | CCCC(c1nc2ccc(Br)cc2c(=O)n1CC)C1CCNCC1 (stereo not shown) [Example 187, 6-Bromo-3-ethyl-2-(1-(piperidin-4-yl)butyl)quinazolin-4(3H)-one] |  | 
> 500 | 500 to 5000 | CCCC(C1=CCNCC1)c1nc2ccc(Br)cc2c(=O)n1CC (stereo not shown) [Example 188, 6-bromo-3-ethyl-2-(1-(1,2,3,6-tetrahydropyridin-4-yl)butyl)quinazolin-4(3H)-one] |  | 
 |  | CCC[C@@H](c1nc2ccc(Br)cc2c(=O)n1CC)[C@H]1CCN[C@@H](C)C1 [Example 190, 6-Bromo-3-ethyl-2-((R)-1-((2S,4S)-2-methylpiperidin-4-yl)butyl)quinazolin-4(3H)-one] | > 500 | > 5000
